Measurements reported in US12570659B2, “Bicyclic heteroaryl compounds useful as IRAK4 inhibitors” (BRISTOL-MYERS SQUIBB COMPANY, priority 2019, dated 2026).

Experiments:
IRAK4 = IRAK4 (Homo sapiens (Human), UniProt Q9NWZ3); assay: IRAK4 Inhibition Assay; assay type: biochemical; conditions: ATP 500 μM; IRAK4 0.6 nM; 60 min room temperature
Procedure: IRAK4 Inhibition Assay The assays were performed in U-bottom 384-well plates. […] The reaction was initiated by the combination of IRAK4 with substrates and test compounds. The reaction mixture was incubated at room temperature for 60 min. and terminated by adding 45 μL of 35 mM EDTA to each sample. The reaction mixture was analyzed on the Caliper LABCHIP® 3000 (Caliper, Hopkinton, MA) by electrophoretic separation of the fluorescent substrate and phosphorylated product. Inhibition data were calculated by comparison to no enzyme control reactions for 100% inhibition and vehicle-only reactions for 0% inhibition.

JAK3 kinase = JAK3 kinase (Homo sapiens (Human), UniProt P52333); assay: JAK3 Homogeneous Time Resolved Fluorescence (HTRF) Assay; assay type: binding; conditions: for IC50: competition binding with fluorescein-labeled ATP competitive probe; for Ratio of JAK3 IC50 to IRAK4 IC50: selectivity for IRAK4 over JAK3
Procedure: JAK3 Homogeneous Time Resolved Fluorescence (HTRF) Assay
A time resolved FRET-based competition binding assay was used to assess test article binding to JAK3 kinase. His-tagged or GST-tagged kinase at a concentration of 1 nM was incubated with 0.2 nM Tb-labeled detection antibody (anti-His or anti-GST), test compound, and fluorescein-labeled ATP competitive probe at a concentration corresponding to the probe's equilibrium dissociation constant for one hour. Fluorescence at 495 nm and 520 nm was measured using an EnVision microplate reader to quantify FRET between Tb-labeled detection antibody and fluorescein-labeled probe. Background subtracted FRET ratios were normalized to the maximum signal obtained in the absence of test compound. These values were converted to a percent inhibition. Percent inhibition was determined for test compounds at 11 concentrations. The IC50, defined as the concentration of the competing test compound needed to reduce specific binding of the probe by 50%, was calculated using the 4 parameter logistic equation to fit the data.

Sequence of IRAK4 (Q9NWZ3 whole entry, species assumed): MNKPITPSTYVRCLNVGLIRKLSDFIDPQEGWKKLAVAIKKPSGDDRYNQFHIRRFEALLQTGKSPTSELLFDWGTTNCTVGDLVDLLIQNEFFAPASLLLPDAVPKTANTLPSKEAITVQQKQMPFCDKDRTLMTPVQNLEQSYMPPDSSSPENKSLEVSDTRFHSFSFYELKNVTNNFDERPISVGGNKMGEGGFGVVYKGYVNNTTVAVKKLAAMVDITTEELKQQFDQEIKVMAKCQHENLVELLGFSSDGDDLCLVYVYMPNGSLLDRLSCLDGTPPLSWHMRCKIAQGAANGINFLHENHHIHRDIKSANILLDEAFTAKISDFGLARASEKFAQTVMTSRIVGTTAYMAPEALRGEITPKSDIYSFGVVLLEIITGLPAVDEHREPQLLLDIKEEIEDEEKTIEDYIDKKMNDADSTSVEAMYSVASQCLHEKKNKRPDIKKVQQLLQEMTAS
Sequence of JAK3 kinase (P52333 whole entry): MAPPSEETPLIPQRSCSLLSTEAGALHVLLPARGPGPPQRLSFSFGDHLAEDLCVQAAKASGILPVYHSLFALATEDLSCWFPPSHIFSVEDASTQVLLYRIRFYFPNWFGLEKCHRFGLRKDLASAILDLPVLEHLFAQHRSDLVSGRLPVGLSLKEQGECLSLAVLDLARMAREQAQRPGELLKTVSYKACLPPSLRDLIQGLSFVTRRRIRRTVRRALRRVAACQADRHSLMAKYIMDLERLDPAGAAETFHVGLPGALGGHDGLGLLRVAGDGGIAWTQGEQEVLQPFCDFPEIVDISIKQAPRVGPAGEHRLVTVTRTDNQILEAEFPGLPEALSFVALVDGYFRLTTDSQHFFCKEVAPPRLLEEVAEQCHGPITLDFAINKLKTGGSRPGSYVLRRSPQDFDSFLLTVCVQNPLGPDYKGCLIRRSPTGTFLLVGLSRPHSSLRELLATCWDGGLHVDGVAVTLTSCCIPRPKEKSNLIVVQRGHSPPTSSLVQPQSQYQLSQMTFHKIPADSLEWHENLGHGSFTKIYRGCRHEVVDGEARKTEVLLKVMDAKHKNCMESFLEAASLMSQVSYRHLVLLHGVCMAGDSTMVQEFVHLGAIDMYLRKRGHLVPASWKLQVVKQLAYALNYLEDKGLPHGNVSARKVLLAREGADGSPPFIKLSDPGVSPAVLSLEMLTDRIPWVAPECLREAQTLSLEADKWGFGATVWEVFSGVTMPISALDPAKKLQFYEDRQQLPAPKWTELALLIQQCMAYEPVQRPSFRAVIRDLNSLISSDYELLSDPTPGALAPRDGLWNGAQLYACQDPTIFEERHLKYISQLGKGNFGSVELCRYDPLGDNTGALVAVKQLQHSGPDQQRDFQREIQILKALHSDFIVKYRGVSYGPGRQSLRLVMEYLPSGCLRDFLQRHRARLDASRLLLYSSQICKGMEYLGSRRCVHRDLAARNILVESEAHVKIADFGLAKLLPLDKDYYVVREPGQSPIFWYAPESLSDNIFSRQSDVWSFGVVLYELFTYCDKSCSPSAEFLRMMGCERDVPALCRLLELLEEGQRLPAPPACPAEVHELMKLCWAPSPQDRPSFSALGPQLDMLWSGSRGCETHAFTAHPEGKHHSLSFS

SMILES | IC50 (IRAK4) [nM] | IC50 (JAK3 kinase) [nM] | Ratio of JAK3 IC50 to IRAK4 IC50 (JAK3 kinase)
CC(C)Nc1c(C(=O)NC[C@@H](F)C(C)(C)O)cnn2cc(-c3cccnc3F)nc12 [Example 103, (R)—N-(2-fluoro-3-hydroxy-3-methylbutyl)-2-(2-fluoropyridin-3-yl)-8-(isopropylamino)imidazo[1,2-b]pyridazine-7-carboxamide] | 45 | > 50000 | >1111
CC(C)Nc1c(C(=O)NC[C@@H](F)C(C)(C)O)cnn2cc(-c3cccnc3)nc12 [Example 99, (R)—N-(2-fluoro-3-hydroxy-3-methylbutyl)-8-(isopropylamino)-2-(pyridin-3-yl) imidazo[1,2-b]pyridazine-7-carboxamide] | 66 | > 10000 | >152
CC(C)Nc1c(C(=O)NC[C@@H](F)C(C)(C)O)cnn2cc(-c3cnn4cc(Cl)cnc34)cc12 [Example 38, (R)-6-(6-chloropyrazolo[1,5-a]pyrimidin-3-yl)-N-(2-fluoro-3-hydroxy-3-methylbutyl)-4-(isopropylamino)pyrrolo[1,2-b]pyridazine-3-carboxamide] | 39 | > 9900 | >254
CC(C)(O)[C@H](F)CNC(=O)c1cnn2cc(-c3ccc(C#N)cn3)cc2c1NC1CCOCC1 [Example 20, (R)-6-(5-cyanopyridin-2-yl)-N-(2-fluoro-3-hydroxy-3-methylbutyl)-4-((tetrahydro-2H-pyran-4-yl)amino)pyrrolo[1,2-b] pyridazine-3-carboxamide] | 150 | > 50000 | >333
CC(C)(O)CCNc1c(C(=O)NC[C@@H](F)C(C)(C)O)cnn2cc(-c3cccc(F)c3)cc12 [Example 26, (R)—N-(2-fluoro-3-hydroxy-3-methylbutyl)-6-(3-fluorophenyl)-4-((3-hydroxy-3-methylbutyl)amino)pyrrolo[1,2-b] pyridazine-3-carboxamide] | 370 | > 50000 | >135
CC(C)(O)CCNc1c(C(=O)NC[C@@H](F)C(C)(C)O)cnn2cc(-c3ccc(F)nc3)cc12 [Example 21, (R)—N-(2-fluoro-3-hydroxy-3-methylbutyl)-6-(6-fluoropyridin-3-yl)-4-((3-hydroxy-3-methylbutyl)amino)pyrrolo[1,2-b] pyridazine-3-carboxamide] | 170 | > 50000 | >294
CC(=O)N[C@H]1CC[C@H](NC(=O)c2cnn3cc(-c4cn[nH]c4)cc3c2NC(C)C)CC1 [Example 61, N-((1r,4r)-4-acetamidocyclohexyl)-4-(isopropylamino)-6-(1H-pyrazol-4-yl)pyrrolo[1,2-b]pyridazine-3-carboxamide] | 11 | > 50000 | >4545
CC(C)Nc1c(C(=O)NC[C@@H](F)C(C)(C)O)cnc2cc(-c3ccc(C#N)cc3)nn12 [Example 141, (R)-2-(4-cyanophenyl)-N-(2-fluoro-3-hydroxy-3-methylbutyl)-7-(isopropylamino)pyrazolo[1,5-a]pyrimidine-6-carboxamide] | 11 | > 50000 | >4545
CC(C)Nc1c(C(=O)NC[C@@H](F)C(C)(C)O)cnn2cc(-n3ncc4cc(C#N)cnc43)cc12 [Example 39, (R)-6-(5-cyano-1H-pyrazolo[3,4-b]pyridin-1-yl)-N-(2-fluoro-3-hydroxy-3-methylbutyl)-4-(isopropylamino) pyrrolo[1,2-b]pyridazine-3-carboxamide] | 21 | > 50000 | >2381
CC(C)(O)CCNc1c(C(=O)NC[C@@H](F)C(C)(C)O)cnn2cc(-c3ccncc3)cc12 [Example 28, (R)—N-(2-fluoro-3-hydroxy-3-methylbutyl)-4-((3-hydroxy-3-methylbutyl)amino)-6-(pyridin-4-yl)pyrrolo[1,2-b]pyridazine-3-carboxamide] | 40.3 | > 50000 | >1241
CC(C)Nc1c(C(=O)NC[C@@H](F)C(C)(C)O)cnn2cc(-n3ncc4cncnc43)cc12 [Example 37, (R)—N-(2-fluoro-3-hydroxy-3-methylbutyl)-4-(isopropylamino)-6-(1H-pyrazolo[3,4-d]pyrimidin-1-yl)pyrrolo[1,2-b]pyridazine-3-carboxamide] | 3.8 | > 50000 | >13158
Cc1cc(F)ncc1-c1cc2c(NCCC(C)(C)O)c(C(=O)NC[C@@H](F)C(C)(C)O)cnn2c1 [Example 24, (R)—N-(2-fluoro-3-hydroxy-3-methylbutyl)-6-(6-fluoro-4-methylpyridin-3-yl)-4-((3-hydroxy-3-methylbutyl)amino)pyrrolo[1,2-b]pyridazine-3-carboxamide] | 140 | > 10000 | >71
CC(C)Nc1c(C(=O)N[C@H]2C[C@H](C(C)(C)O)C2)cnn2cc(-c3ccc(F)nc3)nc12 [Example 114, 2-(6-fluoropyridin-3-yl)-N-((1r,3r)-3-(2-hydroxypropan-2-yl)cyclobutyl)-8-(isopropylamino)imidazo[1,2-b]pyridazine-7-carboxamide] | 840 | > 50000 | >60
CC(C)(O)[C@H](F)CNC(=O)c1cnn2cc(-c3cccnc3)cc2c1NC1CC1 [Example 32, (R)-4-(cyclopropylamino)-N-(2-fluoro-3-hydroxy-3-methylbutyl)-6-(pyridin-3-yl)pyrrolo[1,2-b]pyridazine-3-carboxamide] | 11 | > 50000 | >4545
Cc1cc(F)ncc1-c1cn2ncc(C(=O)N[C@H]3C[C@H](C(C)(C)O)C3)c(NC(C)C)c2n1 [Example 113, 2-(6-fluoro-4-methylpyridin-3-yl)-N-((1r,3r)-3-(2-hydroxypropan-2-yl)cyclobutyl)-8-(isopropylamino) imidazo[1,2-b]pyridazine-7-carboxamide] | 96 | > 50000 | >521
CC(C)Nc1c(C(=O)NC[C@@H](F)C(C)(C)O)cnn2cc(-c3cccc(C#N)c3)nc12 [Example 98, (R)-2-(3-cyanophenyl)-N-(2-fluoro-3-hydroxy-3-methylbutyl)-8-(isopropylamino)imidazo[1,2-b]pyridazine-7-carboxamide] | 240 | > 50000 | >208
CC(C)Nc1c(C(=O)NC[C@@H](F)C(C)(C)O)cnn2cc(-c3ccncc3F)cc12 [Example 47, (R)—N-(2-fluoro-3-hydroxy-3-methylbutyl)-6-(3-fluoropyridin-4-yl)-4-(isopropylamino)pyrrolo[1,2-b]pyridazine-3-carboxamide] | 3.5 | > 50000 | >14286
CC(C)Nc1c(C(=O)NC[C@@H](F)C(C)(C)O)cnn2cc(C3CC3)cc12 [Example 36, (R)-6-cyclopropyl-N-(2-fluoro-3-hydroxy-3-methylbutyl)-4-(isopropylamino)pyrrolo[1,2-b]pyridazine-3-carboxamide] | 46 | > 50000 | >1087
